Values after ≈ are worked out from the molar mass of the structure shown. Where two headings read alike, the source gives them in different places.
Columns and labels:
[1] = test system: Propionibacterium acnes 44; assay: Susceptibility of anaerobic bacteria, agar dilution; format: cell-based; conditions: Cutibacterium acnes, 24 h; Propionibacterium acnes 44; read-out: 24 Hr. Minimum Inhibitory Concentration
[2] = test system: Peptococcus anaerobius 1428; assay: as above; format: cell-based; conditions: 24 h, read-out: 24 Hr. Minimum Inhibitory Concentration
[3] = test system: Bacteroides fragilis sp. vulgatus 1563; assay: as above; format: cell-based; conditions: 24 h, read-out: 24 Hr. Minimum Inhibitory Concentration
[4] = test system: Bacteroides fragilis sp. fragilis 1936B; assay: as above; format: cell-based; conditions: 24 h, read-out: 24 Hr. Minimum Inhibitory Concentration
[5] = test system: Bacteroides fragilis sp. fragilis 1877; assay: as above; format: cell-based; conditions: 24 h, read-out: 24 Hr. Minimum Inhibitory Concentration
[6] = test system: Fusobacterium symbiosum 1470; assay: as above; format: cell-based; conditions: read-out: 24 Hr. Minimum Inhibitory Concentration
[7] = test system: Eubacterium aerofaciens 1235; assay: as above; format: cell-based; conditions: read-out: 24 Hr. Minimum Inhibitory Concentration
Actinomyces bovis 13684 = assay: as above; format: cell-based; conditions: read-out: 24 Hr. Minimum Inhibitory Concentration
[8] = test system: Bacteroides fragilis sp. thetaiotaomicron 1438; assay: as above; format: cell-based; conditions: 24 h, read-out: 24 Hr. Minimum Inhibitory Concentration
[9] = test system: Clostridium perfringens 81; assay: microbe, parasite or virus in culture; format: cell-based; conditions: Clostridium perfringens, 81, 24 h, read-out: 24 Hr. Minimum Inhibitory Concentration
Salmonella typhimurium = assay: Control of infections caused by Salmonella typhimurium in chickens, subcutaneous (Experiment 2); format: in vivo; conditions: Salmonella enterica, sc, 144 h, 6 days, read-out: Survival Ratio (converted); for responders at 3.75 mg/kg: 3.75 mg./kg. subcutaneous; for responders at 7.5 mg/kg: 7.5 mg./kg. subcutaneous; for responders at 15 mg/kg: 15 mg./kg. subcutaneous; for responders at 30 mg/kg: 30 mg./kg. subcutaneous; for responders at 60 mg/kg: 60 mg./kg. subcutaneous
Pasteurella multocida = assay: Efficacy against Pasteurella multocida infections in mice when administered by injection (Experiment 1); format: in vivo, Swiss mice; conditions: ip; for responders at 2.5 mg/kg: 2.5 mg./kg. i.p.; for responders at 5 mg/kg: 5.0 mg./kg. i.p.; for responders at 7.5 mg/kg: 7.5 mg./kg. i.p.
Method: The efficacy of the novel compounds against Pasteurella multocida infections in mice when administered by injection was studied.
Female Swiss mice weighing from 15 to about 20 g. were used. The test compound, 5.0 mg., was weighed out and dissolved in 0.5 ml. of dimethyl sulfoxide, and this solution was added to 9.5 ml. of sodium carboxymethylcellulose suspension. Groups of five mice each were injected intraperitoneally with 0.1 ml. each of the above-prepared test composition. This preparation gave a test rate of 2.5 mg. per kilo of body weight of mouse. The compounds were tested at 2.5, 5.0, or 7.5 mg. per kilo of body weight of mouse, and the test preparations for rates of 5.0 and 7.5 mg./kg. were prepared in a similar manner. Immediately after receiving the test compound, the mice were challenged using log10 dilutions of 10^-^4, 10^-^5, 10^-^6, and 10^-^7 of a 16 to 20-hour tryptose broth culture of Pasteurella multocida at 0.1 ml. per mouse subcutaneously. Similar groups of nontreated control mice were also challenged, the challenge being administered subcutaneously. The groups of mice were observed daily for mortality and the total mortality in treated groups compared with that which occurred in the nonmedicated control groups. Each test compound is identified by the number of the example describing its preparation.
In the chart, column 1 lists the test compound; column 2, the dosage of test compound in mg./kg. of mouse body weight; column 3, the dilution of the challenge organism; and column 4, the ratio of the number of mice surviving the test at each dosage and challenge dilution to the number of mice tested at each dosage and challenge dilution, called the survival ratio.

[10] = Collinsella aerofaciens, 1235, 24 h
[11] = challenge dilution 10^-^4, read-out: Survival Ratio (converted)
[12] = challenge dilution 10^-^5, read-out: Survival Ratio (converted)
[13] = challenge dilution 10^-^6, read-out: Survival Ratio (converted)
[14] = challenge dilution 10^-^7, read-out: Survival Ratio (converted)
[15] = challenge dilution 10^-^4, read-out: Survival Ratio
[16] = challenge dilution 10^-^5, read-out: Survival Ratio
[17] = challenge dilution 10^-^6, read-out: Survival Ratio
[18] = Bacteroides fragilis sp. vulgatus 1563
[19] = Bacteroides fragilis sp. fragilis 1936B
[20] = Bacteroides fragilis sp. fragilis 1877
[21] = 24 h, Fusobacterium symbiosum 1470
[22] = Collinsella aerofaciens, 24 h, Eubacterium aerofaciens 1235
[23] = Bacteroides fragilis sp. thetaiotaomicron 1438

Structure (SMILES)	MIC [1] [µg/mL]	MIC [2] [µg/mL]	MIC ([3]; Bacteroides fragilis) [µg/mL]	MIC ([4]; Bacteroides fragilis) [µg/mL]	MIC ([5]; Bacteroides fragilis) [µg/mL]	MIC ([6]; Fusobacterium, 1470, 24 h) [µg/mL]	MIC [7, 10] [µg/mL]	MIC (Actinomyces bovis 13684; Actinomyces bovis, 13684, 24 h) [µg/mL]	MIC ([8]; Bacteroides fragilis) [µg/mL]	MIC [9] [µg/mL]	responders at 7.5 mg/kg (Salmonella typhimurium) [%]	responders at 15 mg/kg (Salmonella typhimurium) [%]	responders at 30 mg/kg (Salmonella typhimurium) [%]	responders at 60 mg/kg (Salmonella typhimurium) [%]	responders at 2.5 mg/kg (Pasteurella multocida; [11]) [%]	responders at 2.5 mg/kg (Pasteurella multocida; [12]) [%]	responders at 2.5 mg/kg (Pasteurella multocida; [13]) [%]	responders at 5 mg/kg (Pasteurella multocida; [11]) [%]	responders at 5 mg/kg (Pasteurella multocida; [12]) [%]	responders at 5 mg/kg (Pasteurella multocida; [13]) [%]	further results
Cn1nc(-c2ncc([N+](=O)[O-])n2C)c(C#N)c1N [Compound 1, 5-Amino-1-methyl-3-(1-methyl-5-nitro-2-imidazolyl)pyrazole-4-carbonitrile]	> 32	< 0.125	< 0.125	< 0.125	< 0.125	< 0.125	< 0.125	< 0.125	< 0.125	< 0.125	62.9	72	54	67.1	10	40	80	30	90	90	responders at 3.75 mg/kg (Salmonella typhimurium): 44%; responders at 2.5 mg/kg (Pasteurella multocida; [14]): 95%; responders at 5 mg/kg (Pasteurella multocida; [14]): 100%; responders at 7.5 mg/kg (Pasteurella multocida; [15]): 70%; responders at 7.5 mg/kg (Pasteurella multocida; [16]): 90%; responders at 7.5 mg/kg (Pasteurella multocida; [17]): 100%
Cn1nc(-c2ncc([N+](=O)[O-])n2C)c(C(N)=O)c1N [Compound 2, 5-Amino-1-methyl-3-(1-methyl-5-nitro-2-imidazolyl)pyrazole-4-carboxamide]	0.5 (≈ 1.89 µM)	< 0.125	< 0.125	< 0.125	< 0.125	< 0.125	< 0.125	< 0.125	< 0.125	< 0.125	0	40	44	46.7	50	90	100	–	–	–	–
COC=Nc1c(C#N)c(-c2ncc([N+](=O)[O-])n2C)nn1C [Compound 6, Methyl N-[4-cyano-1-methyl-3-(1-methyl-5-nitro-2-imidazolyl)pyrazol-5-yl]formimidate]	> 32	< 0.125	< 0.125	< 0.125	< 0.125	< 0.125	< 0.125	< 0.125	< 0.125	< 0.125	90	50	50	46.7	90	50	90	80	90	100	responders at 3.75 mg/kg (Salmonella typhimurium): 80%; responders at 2.5 mg/kg (Pasteurella multocida; [14]): 100%; responders at 7.5 mg/kg (Pasteurella multocida; [15]): 90%; responders at 7.5 mg/kg (Pasteurella multocida; [16]): 90%; responders at 7.5 mg/kg (Pasteurella multocida; [17]): 100%
CCCCOC=Nc1c(C#N)c(-c2ncc([N+](=O)[O-])n2C)nn1C [Compound 7, Butyl N-[4-Cyano-1-methyl-3-(1-methyl-5-nitro-2-imidazolyl)-pyrazol-5-yl]formimidate]	> 32	< 0.125	< 0.125	< 0.125	< 0.125	< 0.125	< 0.125	< 0.125	< 0.125	< 0.125	0	55	40	55	15	35	70	30	45	75	responders at 7.5 mg/kg (Pasteurella multocida; [15]): 50%; responders at 7.5 mg/kg (Pasteurella multocida; [16]): 70%; responders at 7.5 mg/kg (Pasteurella multocida; [17]): 100%
CC(=O)Nc1c(C(=O)O)c(-c2ncc([N+](=O)[O-])n2C)nn1C [Compound 12, 5-acetamido-1-methyl-3-(1-methyl-5-nitro-2-imidazolyl)pyrazole-4-carboxylic acid]	> 32	–	–	–	–	–	–	–	–	8 (≈ 26 µM)	–	–	–	–	–	–	–	0	30	70	MIC ([2]; Peptococcus anaerobius 1428): 8 µg/mL (≈ 26 µM); MIC [3, 18]: 1 µg/mL (≈ 3.24 µM); MIC [4, 19]: 16 µg/mL (≈ 51.9 µM); MIC [5, 20]: 4 µg/mL (≈ 13 µM); MIC [6, 21]: < 0.125 µg/mL; MIC [7, 22]: 1 µg/mL (≈ 3.24 µM); MIC (Actinomyces bovis 13684; 24 h, Actinomyces bovis 13684): 0.5 µg/mL (≈ 1.62 µM); MIC [8, 23]: 2 µg/mL (≈ 6.49 µM)
C=CCOC=Nc1c(C#N)c(-c2ncc([N+](=O)[O-])n2C)nn1C [Compound 13A, Allyl N-[4-cyano-1-methyl-3-(1-methyl-5-nitro-2-imidazolyl)pyrazol-5-yl]formimidate]	> 128	–	–	–	–	–	–	–	–	1 (≈ 3.17 µM)	46.7	53.3	33.3	50	–	–	–	60	80	100	MIC ([2]; Peptococcus anaerobius 1428): 2 µg/mL (≈ 6.34 µM); MIC [3, 18]: 0.25 µg/mL (≈ 0.793 µM); MIC [4, 19]: 2 µg/mL (≈ 6.34 µM); MIC [5, 20]: 0.5 µg/mL (≈ 1.59 µM); MIC [6, 21]: < 0.125 µg/mL; MIC [7, 22]: < 0.125 µg/mL; MIC (Actinomyces bovis 13684; 24 h, Actinomyces bovis 13684): 0.5 µg/mL (≈ 1.59 µM); MIC [8, 23]: 0.25 µg/mL (≈ 0.793 µM); responders at 3.75 mg/kg (Salmonella typhimurium): 40%
CCCCC(CC)COC=Nc1c(C#N)c(-c2ncc([N+](=O)[O-])n2C)nn1C (stereo not drawn) [Compound 13D, 2-Ethylhexyl N-[4-cyano-1-methyl-3-(1-methyl-5-nitro-2-imidazolyl)pyrazol-5-yl]formimidate]	16 (≈ 41.3 µM)	–	–	–	–	–	–	–	–	1 (≈ 2.58 µM)	–	10	10	33.3	30	70	90	90	100	100	MIC ([2]; Peptococcus anaerobius 1428): 2 µg/mL (≈ 5.16 µM); MIC [3, 18]: 0.5 µg/mL (≈ 1.29 µM); MIC [4, 19]: 0.5 µg/mL (≈ 1.29 µM); MIC [5, 20]: 2 µg/mL (≈ 5.16 µM); MIC [6, 21]: 1 µg/mL (≈ 2.58 µM); MIC [7, 22]: 2 µg/mL (≈ 5.16 µM); MIC (Actinomyces bovis 13684; 24 h, Actinomyces bovis 13684): 1 µg/mL (≈ 2.58 µM); MIC [8, 23]: 1 µg/mL (≈ 2.58 µM); responders at 7.5 mg/kg (Pasteurella multocida; [15]): 100%; responders at 7.5 mg/kg (Pasteurella multocida; [16]): 100%; responders at 7.5 mg/kg (Pasteurella multocida; [17]): 100%

From US3980794A, “Method for promoting growth of poultry with 3-(5-nitro-2-imidazolyl)pyrazoles” (Eli Lilly and Company, priority 1975, dated 1976)
